Measured values from ChEMBL document CHEMBL4311999, “3-Hydrazinoisatin-based benzenesulfonamides as novel carbonic anhydrase inhibitors endowed with anticancer activity: Synthesis, in vitro biological evaluation and in silico insights” (Eur J Med Chem, 2019).

Legend:
Carbonic anhydrase 9 [1] = molecular target: T1, Carbonic anhydrase 9 (Homo sapiens, UniProt Q16790); test: Inhibition of recombinant human carbonic anhydrase 9 preincubated for 15 mins by phenol red dye based stopped flow CO2 hydration assay
Carbonic anhydrase 12 = Carbonic anhydrase 12 (Homo sapiens, UniProt O43570); test: Inhibition of recombinant human carbonic anhydrase 12 preincubated for 15 mins by phenol red dye based stopped flow CO2 hydration assay
Sequence of Carbonic anhydrase 12 (O43570 whole entry): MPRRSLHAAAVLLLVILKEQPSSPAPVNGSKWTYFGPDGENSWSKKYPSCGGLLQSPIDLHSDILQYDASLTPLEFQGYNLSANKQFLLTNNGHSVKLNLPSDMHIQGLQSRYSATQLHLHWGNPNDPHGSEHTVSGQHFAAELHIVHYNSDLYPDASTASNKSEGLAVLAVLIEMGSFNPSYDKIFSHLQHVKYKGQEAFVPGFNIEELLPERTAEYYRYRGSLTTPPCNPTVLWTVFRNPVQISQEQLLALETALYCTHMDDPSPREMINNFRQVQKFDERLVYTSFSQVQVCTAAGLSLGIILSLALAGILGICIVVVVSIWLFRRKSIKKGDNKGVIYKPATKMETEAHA

Carbonic anhydrase 1 = Carbonic anhydrase 1 (Homo sapiens, UniProt P00915); test: Inhibition of recombinant human carbonic anhydrase 1 preincubated for 15 mins by phenol red dye based stopped flow CO2 hydration assay
Sequence of Carbonic anhydrase 1 (P00915 whole entry): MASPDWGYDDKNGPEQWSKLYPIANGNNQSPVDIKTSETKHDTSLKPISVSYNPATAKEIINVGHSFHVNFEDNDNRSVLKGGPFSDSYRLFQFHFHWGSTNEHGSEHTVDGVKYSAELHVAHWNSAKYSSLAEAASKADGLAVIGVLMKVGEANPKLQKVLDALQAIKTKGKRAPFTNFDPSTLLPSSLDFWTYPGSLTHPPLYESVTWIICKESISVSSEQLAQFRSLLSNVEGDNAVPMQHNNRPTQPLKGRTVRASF

Carbonic anhydrase 2 = Carbonic anhydrase 2 (Homo sapiens, UniProt P00918); test: Inhibition of recombinant human carbonic anhydrase 2 preincubated for 15 mins by phenol red dye based stopped flow CO2 hydration assay
Carbonic anhydrase 9 [2] = molecular target: T1, Carbonic anhydrase 9; conditions: at 1 µM
Description: Inhibition of recombinant human carbonic anhydrase 9 at 1 uM preincubated for 15 mins by phenol red dye based stopped flow CO2 hydration assay (Rvb = 0%)

Carbonic anhydrase 9 [3] = molecular target: T1, Carbonic anhydrase 9; conditions: at 0.1 µM
Description: Inhibition of recombinant human carbonic anhydrase 9 at 0.1 uM preincubated for 15 mins by phenol red dye based stopped flow CO2 hydration assay (Rvb = 0%)

Carbonic anhydrase 9 [4] = molecular target: T1, Carbonic anhydrase 9; conditions: at 1 nM
Carbonic anhydrase 9 [5] = molecular target: T1, Carbonic anhydrase 9; conditions: at 0.01 µM
Description: Inhibition of recombinant human carbonic anhydrase 9 at 0.01 uM preincubated for 15 mins by phenol red dye based stopped flow CO2 hydration assay (Rvb = 0%)

A498 = test: Growth inhibition of human A498 cells at 10 uM incubated for 48 hrs by sulforhodamine B assay relative to control; format: functional; conditions: A498, 48 h, read-out: GI
KM12 = test: Growth inhibition of human KM12 cells at 10 uM incubated for 48 hrs by sulforhodamine B assay relative to control; format: functional; conditions: KM12, 48 h, read-out: GI
MOLT-4 = test: Growth inhibition of human MOLT4 cells at 10 uM incubated for 48 hrs by sulforhodamine B assay relative to control; format: functional; conditions: MOLT-4, 48 h, read-out: GI
RPMI-8226 = test: Growth inhibition of human RPMI8226 cells at 10 uM incubated for 48 hrs by sulforhodamine B assay relative to control; format: functional; conditions: RPMI-8226, 48 h, read-out: GI
SW-620 = test: Growth inhibition of human SW620 cells at 10 uM incubated for 48 hrs by sulforhodamine B assay relative to control; format: functional; conditions: SW-620, 48 h, read-out: GI
IGROV-1 = test: Growth inhibition of human IGROV1 cells at 10 uM incubated for 48 hrs by sulforhodamine B assay relative to control; format: functional; conditions: IGROV-1, 48 h, read-out: GI
DU-145 = test: Growth inhibition of human DU145 cells at 10 uM incubated for 48 hrs by sulforhodamine B assay relative to control; format: functional; conditions: DU-145, 48 h, read-out: GI
UO-31 = test: Growth inhibition of human UO31 cells at 10 uM incubated for 48 hrs by sulforhodamine B assay relative to control; format: functional; conditions: UO-31, 48 h, read-out: GI
NCI-H522 = test: Growth inhibition of human NCI-H522 cells at 10 uM incubated for 48 hrs by sulforhodamine B assay relative to control; format: functional; conditions: NCI-H522, 48 h, read-out: GI
A549 = test: Growth inhibition of human A549/ATCC cells at 10 uM incubated for 48 hrs by sulforhodamine B assay relative to control; format: functional; conditions: A549, 48 h, read-out: GI
OVCAR-4 = test: Growth inhibition of human OVCAR4 cells at 10 uM incubated for 48 hrs by sulforhodamine B assay relative to control; format: functional; conditions: OVCAR-4, 48 h, read-out: GI
SK-OV-3 = test: Growth inhibition of human SKOV3 cells at 10 uM incubated for 48 hrs by sulforhodamine B assay relative to control; format: functional; conditions: SK-OV-3, 48 h, read-out: GI
CAKI-1 = test: Growth inhibition of human Caki1 cells at 10 uM incubated for 48 hrs by sulforhodamine B assay relative to control; format: functional; conditions: CAKI-1, 48 h, read-out: GI
HCT-116 = test: Growth inhibition of human HCT116 cells at 10 uM incubated for 48 hrs by sulforhodamine B assay relative to control; format: functional; conditions: HCT-116, 48 h, read-out: GI
UACC-62 = test: Growth inhibition of human UACC62 cells at 10 uM incubated for 48 hrs by sulforhodamine B assay relative to control; format: functional; conditions: UACC-62, 48 h, read-out: GI
EKVX = test: Growth inhibition of human EKVX cells at 10 uM incubated for 48 hrs by sulforhodamine B assay relative to control; format: functional; conditions: read-out: GI
K562 = test: Growth inhibition of human K562 cells at 10 uM incubated for 48 hrs by sulforhodamine B assay relative to control; format: functional; conditions: K562, 48 h, read-out: GI
NCI-H226 = test: Growth inhibition of human NCI-H226 cells at 10 uM incubated for 48 hrs by sulforhodamine B assay relative to control; format: functional; conditions: NCI-H226, 48 h, read-out: GI
MCF7 = test: Growth inhibition of human MCF7 cells at 10 uM incubated for 48 hrs by sulforhodamine B assay relative to control; format: functional; conditions: MCF7, 48 h, read-out: GI
TK-10 = test: Growth inhibition of human TK10 cells at 10 uM incubated for 48 hrs by sulforhodamine B assay relative to control; format: functional; conditions: TK-10, 48 h, read-out: GI
ACHN = test: Growth inhibition of human ACHN cells at 10 uM incubated for 48 hrs by sulforhodamine B assay relative to control; format: functional; conditions: read-out: GI
786-0 = test: Growth inhibition of human 786-0 cells at 10 uM incubated for 48 hrs by sulforhodamine B assay relative to control; format: functional; conditions: 786-0, 48 h, read-out: GI
CCRF-CEM = test: Growth inhibition of human CCRF-CEM cells at 10 uM incubated for 48 hrs by sulforhodamine B assay relative to control; format: functional; conditions: read-out: GI
T47D = test: Growth inhibition of human T47D cells at 10 uM incubated for 48 hrs by sulforhodamine B assay relative to control; format: functional; conditions: read-out: GI
BT-549 = test: Growth inhibition of human BT549 cells at 10 uM incubated for 48 hrs by sulforhodamine B assay relative to control; format: functional; conditions: BT-549, 48 h, read-out: GI
NCI/ADR-RES = test: Growth inhibition of human NCI/ADR-RES cells at 10 uM incubated for 48 hrs by sulforhodamine B assay relative to control; format: functional; conditions: read-out: GI
NCI-H460 = test: Growth inhibition of human NCI-H460 cells at 10 uM incubated for 48 hrs by sulforhodamine B assay relative to control; format: functional; conditions: NCI-H460, 48 h, read-out: GI
HCT-15 = test: Growth inhibition of human HCT15 cells at 10 uM incubated for 48 hrs by sulforhodamine B assay relative to control; format: functional; conditions: HCT-15, 48 h, read-out: GI
PC-3 = test: Growth inhibition of human PC3 cells at 10 uM incubated for 48 hrs by sulforhodamine B assay relative to control; format: functional; conditions: PC-3, 48 h, read-out: GI
OVCAR-5 = test: Growth inhibition of human OVCAR5 cells at 10 uM incubated for 48 hrs by sulforhodamine B assay relative to control; format: functional; conditions: OVCAR-5, 48 h, read-out: GI
RXF 393 = test: Growth inhibition of human RXF393 cells at 10 uM incubated for 48 hrs by sulforhodamine B assay relative to control; format: functional; conditions: RXF 393, 48 h, read-out: GI
HOP-62 = test: Growth inhibition of human HOP62 cells at 10 uM incubated for 48 hrs by sulforhodamine B assay relative to control; format: functional; conditions: HOP-62, 48 h, read-out: GI
OVCAR-8 = test: Growth inhibition of human OVCAR8 cells at 10 uM incubated for 48 hrs by sulforhodamine B assay relative to control; format: functional; conditions: OVCAR-8, 48 h, read-out: GI
MDA-MB-231 = test: Growth inhibition of human MDA-MB-231 cells at 10 uM incubated for 48 hrs by sulforhodamine B assay relative to control; format: functional; conditions: MDA-MB-231, 48 h, read-out: GI
MDA-MB-468 = test: Growth inhibition of human MDA-MB-468 cells at 10 uM incubated for 48 hrs by sulforhodamine B assay relative to control; format: functional; conditions: MDA-MB-468, 48 h, read-out: GI
SNB-75 = test: Growth inhibition of human SNB75 cells at 10 uM incubated for 48 hrs by sulforhodamine B assay relative to control; format: functional; conditions: SNB-75, 48 h, read-out: GI
SF-539 = test: Growth inhibition of human SF539 cells at 10 uM incubated for 48 hrs by sulforhodamine B assay relative to control; format: functional; conditions: SF-539, 48 h, read-out: GI

CCCN1C(=O)/C(=N\Nc2ccc(S(N)(=O)=O)cc2)c2ccccc21
Ki (Carbonic anhydrase 9 [1]): 0.0286 µM

NS(=O)(=O)c1ccc(N/N=C2\C(=O)Nc3ccccc32)cc1
Ki (Carbonic anhydrase 12): 0.0301 µM
Ki (Carbonic anhydrase 1): 0.467 µM
Ki (Carbonic anhydrase 9 [1]): 0.0155 µM
Ki (Carbonic anhydrase 2): 0.0633 µM

CCN1C(=O)/C(=N\Nc2ccc(S(N)(=O)=O)cc2)c2cc(Cl)ccc21
Ki (Carbonic anhydrase 9 [1]): 0.0084 µM

CCN1C(=O)/C(=N\Nc2ccc(S(N)(=O)=O)cc2)c2cc(Br)ccc21
Ki (Carbonic anhydrase 9 [1]): 0.042 µM

NS(=O)(=O)c1ccc(N/N=C2\C(=O)Nc3ccc(Cl)cc32)cc1 [GW280670X]
Ki (Carbonic anhydrase 12): 0.0119 µM
Ki (Carbonic anhydrase 1): 1.81 µM
Ki (Carbonic anhydrase 9 [1]): 0.0083 µM
Ki (Carbonic anhydrase 2): 0.0359 µM

CN1C(=O)/C(=N\Nc2ccc(S(N)(=O)=O)cc2)c2ccccc21
inhibition (Carbonic anhydrase 9 [2]): 81%
inhibition (Carbonic anhydrase 9 [3]): 75%
inhibition (Carbonic anhydrase 9 [4]): 17%
Ki (Carbonic anhydrase 9 [1]): 0.0094 µM
inhibition (Carbonic anhydrase 9 [5]): 51%

CN1C(=O)/C(=N\Nc2ccc(S(N)(=O)=O)cc2)c2cc(Br)ccc21
Ki (Carbonic anhydrase 9 [1]): 0.0401 µM

CCOC(=O)CN1C(=O)/C(=N\Nc2ccc(S(N)(=O)=O)cc2)c2cc(Cl)ccc21
inhibition of growth at 10 µM (A498): 10%
inhibition (Carbonic anhydrase 9 [2]): 76%
inhibition of growth at 10 µM (KM12): 12%
inhibition (Carbonic anhydrase 9 [3]): 66%
inhibition of growth at 10 µM (MOLT-4): 21%
inhibition of growth at 10 µM (RPMI-8226): 11%
inhibition of growth at 10 µM (SW-620): 10%
inhibition (Carbonic anhydrase 9 [4]): 11%
inhibition of growth at 10 µM (IGROV-1): 13%
inhibition of growth at 10 µM (DU-145): 10%
inhibition of growth at 10 µM (UO-31): 18%
inhibition of growth at 10 µM (NCI-H522): 18%
inhibition of growth at 10 µM (A549): 17%
inhibition of growth at 10 µM (OVCAR-4): 10%
inhibition of growth at 10 µM (SK-OV-3): 10%
inhibition of growth at 10 µM (CAKI-1): 24%
inhibition of growth at 10 µM (HCT-116): 10%
inhibition of growth at 10 µM (UACC-62): 24%
inhibition of growth at 10 µM (EKVX): 16%
inhibition of growth at 10 µM (K562): 15%
Ki (Carbonic anhydrase 9 [1]): 0.0388 µM
inhibition of growth at 10 µM (NCI-H226): 18%
inhibition (Carbonic anhydrase 9 [5]): 42%
inhibition of growth at 10 µM (MCF7): 21%
inhibition of growth at 10 µM (TK-10): 29%
inhibition of growth at 10 µM (ACHN): 30%
inhibition of growth at 10 µM (786-0): 10%

CCCN1C(=O)/C(=N\Nc2ccc(S(N)(=O)=O)cc2)c2cc(Br)ccc21
inhibition of growth at 10 µM (CCRF-CEM): 14%
inhibition of growth at 10 µM (MOLT-4): 12%
inhibition of growth at 10 µM (RPMI-8226): 26%
inhibition of growth at 10 µM (T47D): 19%
inhibition of growth at 10 µM (BT-549): 10%
inhibition of growth at 10 µM (NCI/ADR-RES): 16%
inhibition of growth at 10 µM (NCI-H460): 22%
inhibition of growth at 10 µM (HCT-15): 12%
inhibition of growth at 10 µM (UO-31): 18%
inhibition of growth at 10 µM (NCI-H522): 31%
inhibition of growth at 10 µM (A549): 19%
inhibition of growth at 10 µM (PC-3): 24%
inhibition of growth at 10 µM (OVCAR-5): 11%
inhibition of growth at 10 µM (RXF 393): 23%
inhibition of growth at 10 µM (HCT-116): 30%
inhibition of growth at 10 µM (HOP-62): 13%
inhibition of growth at 10 µM (UACC-62): 30%
inhibition of growth at 10 µM (EKVX): 11%
inhibition of growth at 10 µM (K562): 21%
inhibition of growth at 10 µM (OVCAR-8): 24%
Ki (Carbonic anhydrase 9 [1]): 0.0558 µM
inhibition of growth at 10 µM (NCI-H226): 18%
inhibition of growth at 10 µM (MDA-MB-231): 10%
inhibition of growth at 10 µM (MCF7): 20%
inhibition of growth at 10 µM (MDA-MB-468): 14%
inhibition of growth at 10 µM (SNB-75): 27%
inhibition of growth at 10 µM (TK-10): 10%
inhibition of growth at 10 µM (ACHN): 23%
inhibition of growth at 10 µM (SF-539): 13%

CCCN1C(=O)/C(=N\Nc2ccc(S(N)(=O)=O)cc2)c2cc(Cl)ccc21
Ki (Carbonic anhydrase 9 [1]): 0.0131 µM

CCN1C(=O)/C(=N\Nc2ccc(S(N)(=O)=O)cc2)c2ccccc21
Ki (Carbonic anhydrase 9 [1]): 0.0258 µM

CCOC(=O)CN1C(=O)/C(=N\Nc2ccc(S(N)(=O)=O)cc2)c2ccccc21
Ki (Carbonic anhydrase 9 [1]): 0.0159 µM

NS(=O)(=O)c1ccc(N/N=C2\C(=O)Nc3ccc(Br)cc32)cc1
Ki (Carbonic anhydrase 12): 0.0659 µM
Ki (Carbonic anhydrase 1): 3.71 µM
Ki (Carbonic anhydrase 9 [1]): 0.0248 µM
Ki (Carbonic anhydrase 2): 0.0956 µM
